The values that follow come from patent publication US20130072404A1, “APPARATUS AND PROCESSES FOR GENERATING VARIABLE CONCENTRATION OF SOLUTES IN MICRODROPLETS” (UNIVERSITE DE STRASBOURG, priority 2009, published 2013).

Molecules are shown by their SMILES. “And” between values parts separate entries of the source, which are not always exact repeats. Equal values may be shown once.

Assay [1] concerns the target T1, β-galactosidase (Escherichia coli, UniProt P00722). The assay is described as follows: High-resolution dose-response screening of β-galactosidase inhibition in droplets (Example 2), FDG substrate. The conditions noted are these: for IC50: 4-parameter Hill fit. In kind it is biochemical, E. coli. Also on record: purchased Grade VIII. The method, then: PBS was pumped through the autosampler at a rate of 200 μl/hour. On-chip, this flow was combined with solutions of enzyme and substrate, both flowing at 100 μl/hour. The enzyme solution was 20 U/ml of E. coli Grade VIII β-galactosidase in PBS containing 4 g/l BSA. The substrate solution was 240 μM FDG and 400 nM sodium fluorescein in PBS. The combined aqueous flow was segmented into droplets by the oil/surfactant solution flowing at a rate of 400 μl/hour. The optical setup was positioned just before the delay line and individual droplets were discriminated by green fluorescence. The measurement at this point provided a “pseudo blank” (no enzyme activity, equivalent to 100% inhibition) for the inhibition calculations later on: droplets with zero activity were not observed to change fluorescence between production and any measurement point in the delay line (FIG. 17).
The optical setup was repositioned to the 30-second measurement point and the droplets were analyzed continuously. Meanwhile, the autosampler was used to load 1 μl from each well of a 96-well plate into the PBS stream running through the dispersion capillary. Each well contained 20 μl of 100 μM DY-682 in PBS, plus one of four different concentrations of the inhibitor 2-phenylethyl β-D-thiogalactoside (PETG; Invitrogen Corp., California, USA): 600 μM (“high”), 120 μM (“medium”), 24 μM (“low”), or zero. As each Gaussian-like pulse of DY-682 and PETG, mixed with the reaction components and segmented into droplets, arrived at the optical detector, a dose-response profile was recorded.
Offline, a Python script was used to group the droplets in the front edge of each Gaussian-like pulse by injection (˜10,000 droplets); these droplets are referred to as the injection's “dose-response droplets”. 1 second's worth of droplets directly preceding each Gaussian-like pulse were also stored (˜800 droplets). The mean green fluorescence of these droplets provided the “control” value (0% inhibition) for the injection and this value was used with the pseudo blank value (corresponding to 100% inhibition) to calculate the percentage inhibition in the subsequent dose-response droplets. […] The corrected green signal was then used to calculate the proportion of inhibition (I) in each droplet using the following equation: […]
where M is corrected measured fluorescence, B is the pseudo blank value, and C is the control value. In parallel, the NIR fluorescence signal for each droplet was used to calculate the concentration of co-injected compound. […]
For each of the 16 “medium” injections the quality of the assay was determined by calculating the Z-factor (Zhang et al., 1999).
Target sequence in this assay (P00722 2-1024): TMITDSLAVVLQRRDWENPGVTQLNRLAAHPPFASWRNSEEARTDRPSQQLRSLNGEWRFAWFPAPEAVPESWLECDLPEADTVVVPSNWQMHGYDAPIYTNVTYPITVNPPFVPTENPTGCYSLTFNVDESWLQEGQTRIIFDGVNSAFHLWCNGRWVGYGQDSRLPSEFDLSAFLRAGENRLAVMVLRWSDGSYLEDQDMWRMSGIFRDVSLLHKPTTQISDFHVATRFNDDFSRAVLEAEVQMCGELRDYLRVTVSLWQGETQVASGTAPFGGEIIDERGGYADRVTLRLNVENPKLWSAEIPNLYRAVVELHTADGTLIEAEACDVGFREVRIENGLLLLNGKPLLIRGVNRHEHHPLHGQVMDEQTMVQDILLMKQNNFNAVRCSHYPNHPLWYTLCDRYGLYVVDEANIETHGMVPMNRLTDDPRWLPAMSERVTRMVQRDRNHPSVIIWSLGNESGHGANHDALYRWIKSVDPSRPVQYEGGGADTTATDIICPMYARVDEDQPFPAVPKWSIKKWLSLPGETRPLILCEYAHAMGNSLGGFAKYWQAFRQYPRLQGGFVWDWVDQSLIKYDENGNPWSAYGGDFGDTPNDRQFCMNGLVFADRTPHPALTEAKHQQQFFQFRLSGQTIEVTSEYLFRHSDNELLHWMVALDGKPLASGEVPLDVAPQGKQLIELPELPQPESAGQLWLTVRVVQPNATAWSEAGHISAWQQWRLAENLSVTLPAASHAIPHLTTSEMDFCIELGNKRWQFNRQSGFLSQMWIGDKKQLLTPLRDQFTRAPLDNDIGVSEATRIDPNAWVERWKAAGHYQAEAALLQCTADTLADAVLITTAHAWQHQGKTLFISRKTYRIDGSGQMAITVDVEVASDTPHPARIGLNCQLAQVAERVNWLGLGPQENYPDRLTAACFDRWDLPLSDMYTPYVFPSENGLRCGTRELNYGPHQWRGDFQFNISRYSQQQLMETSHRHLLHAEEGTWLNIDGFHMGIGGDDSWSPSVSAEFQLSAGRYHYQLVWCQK

The target in assay [2] is T1, β-galactosidase. In words: Droplet microfluidic IC50 measurement, on-chip serial dilution network with scanning chamber (Example 1d), RBG substrate. Further details: purchased Sigma-Aldrich Co. The conditions noted are these: 75 s droplet incubation, 4-parameter log-logistic fit, read-out: IC50 of PETG in the enzyme/substrate/inhibitor system. In kind it is biochemical. The method, then:
In the examples, the model systems comprised an enzyme, a substrate, and an inhibitor for IC50 measurements and an enzyme and substrate alone for KM measurements. In all cases the enzyme was β-galactosidase (Sigma-Aldrich Co.), the substrate was resorufin β-D-galactopyranoside (RBG; Invitrogen Corporation), and the inhibitor was phenylethyl β-D-thiogalactopyranoside (PETG; Invitrogen Corporation).
An aqueous phase of 120 μM PETG (the inhibitor) and 100 μM sodium fluorescein in PBS were injected into the ‘compound’ input of the micro fluidic device (FIG. 4) at a flow rate of 111 μl/hr. A second aqueous phase, PBS, was injected into the ‘diluent’ input at a flow rate of 389 μl/hr. […]
A series of microdroplets were created containing PETG (and sodium fluorescein) at different concentrations: from zero to 30 μM (25 μM sodium fluorescein) and then from 30 μM to zero. […] The amounts of fluorescent resorufin (liberated by β-galactosidase activity) and sodium fluorescein were measured for each droplet by monitoring fluorescence intensity in the 590-625 and 500-520 nm channels, respectively.
About 10^5 microdroplets were plotted in an XY graph with initial reaction rate (inferred from resorufin fluorescence after 75 seconds of droplet incubation) against inhibitor concentration (assumed to be proportional to sodium fluorescein fluorescence). […]
Target sequence in this assay (P00722 2-1024 limits assumed): as the sequence (P00722 2-1024) above

With `OC[C@H]1O[C@@H](SCCc2ccccc2)[C@H](O)[C@@H](O)[C@H]1O` [PETG, phenylethyl β-D-thiogalactopyranoside], the inhibition against β-galactosidase [1] (droplets containing 50 μM PETG) is recorded as 97.5%. The IC50 on β-galactosidase [1] (mean IC50, high (600 μM) injected PETG) was 1.98 µM; against β-galactosidase [1] (mean IC50, low (24 μM) injected PETG), 1.98 µM; at β-galactosidase [1] (mean IC50, medium (120 μM) injected PETG, n=16), 2.06 µM; on β-galactosidase [2], 2.21 µM and 3.04 µM.
